Laboratory results taken from ChEMBL document CHEMBL1201862, “PubChem BioAssay data set” (2004).
Blank lines part the entries; values can stand above or below the molecule they belong to. Activity calls are given as the source filed them.

Key:
[1] = P. falciparum Dd2 growth inhibitors, dose response, SYBR Green, cherry-picked samples (AID 1159567); assay type: functional, cell-based
[2] = HepG2 cell cytotoxicity, dose response, cytotoxicity control, cherry-picked samples (AID 1159577); assay type: functional, cell-based
[3] = target: NAD-dependent protein deacylase sirtuin-5, mitochondrial (Homo sapiens, UniProt Q9NXA8); experiment: SIRT5 desuccinylase inhibitors, dose response, biochemical, fluorescence imaging, cherry-pick, set 5 (AID 720591);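 also: desuccinylation of succinyl peptide AMC substrate read as fluorescence after trypsin release; potency of inhibitors that lower fluorescence and may act on trypsin instead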
Chain of NAD-dependent protein deacylase sirtuin-5, mitochondrial (Q9NXA8 whole entry, the tested form may be a part): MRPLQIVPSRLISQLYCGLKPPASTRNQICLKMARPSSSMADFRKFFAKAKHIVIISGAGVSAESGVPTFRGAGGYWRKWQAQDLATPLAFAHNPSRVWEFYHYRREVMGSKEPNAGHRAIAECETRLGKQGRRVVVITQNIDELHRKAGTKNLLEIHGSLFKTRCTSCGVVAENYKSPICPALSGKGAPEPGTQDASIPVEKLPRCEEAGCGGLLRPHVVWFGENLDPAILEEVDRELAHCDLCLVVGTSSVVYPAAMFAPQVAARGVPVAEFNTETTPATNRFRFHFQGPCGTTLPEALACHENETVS

[4] = target: Disintegrin and metalloproteinase domain-containing protein 17 (Homo sapiens, UniProt P78536); experiment: exosite inhibitors of ADAM17, dose response, biochemical (AID 743260)
Chain of Disintegrin and metalloproteinase domain-containing protein 17 (P78536 whole entry, the tested form may be a part): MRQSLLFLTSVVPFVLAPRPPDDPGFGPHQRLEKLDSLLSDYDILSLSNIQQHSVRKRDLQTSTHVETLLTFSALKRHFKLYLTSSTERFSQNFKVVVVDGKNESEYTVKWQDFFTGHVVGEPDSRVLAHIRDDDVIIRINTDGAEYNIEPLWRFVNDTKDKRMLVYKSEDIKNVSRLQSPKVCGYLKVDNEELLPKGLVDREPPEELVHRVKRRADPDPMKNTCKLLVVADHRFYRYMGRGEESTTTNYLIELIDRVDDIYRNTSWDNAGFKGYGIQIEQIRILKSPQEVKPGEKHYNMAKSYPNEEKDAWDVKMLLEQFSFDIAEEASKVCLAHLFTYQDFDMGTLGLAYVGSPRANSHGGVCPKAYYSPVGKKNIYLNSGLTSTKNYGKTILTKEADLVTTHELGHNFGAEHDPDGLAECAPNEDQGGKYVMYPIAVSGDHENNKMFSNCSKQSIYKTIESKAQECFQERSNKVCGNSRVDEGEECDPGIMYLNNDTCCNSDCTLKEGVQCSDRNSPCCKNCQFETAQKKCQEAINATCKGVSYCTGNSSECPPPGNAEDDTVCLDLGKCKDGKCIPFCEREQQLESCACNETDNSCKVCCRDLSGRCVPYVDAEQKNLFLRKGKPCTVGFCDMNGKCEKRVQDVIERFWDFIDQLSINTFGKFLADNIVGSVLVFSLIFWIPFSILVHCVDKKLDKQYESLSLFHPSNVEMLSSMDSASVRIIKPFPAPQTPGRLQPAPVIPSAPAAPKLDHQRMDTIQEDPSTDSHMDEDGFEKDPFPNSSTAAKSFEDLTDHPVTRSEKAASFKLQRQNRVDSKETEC

[5] = ADAM10 protease inhibitors, dose response, selectivity assay for ADAM17 exosite inhibitor project, biochemical, FRET peptide substrate, recombinant human ADAM10 (AID 743259);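 also: ADAM10 enzyme cleaving a FRET peptide substrate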
[6] = inhibitors of intracellular T. cruzi replication, confirmation, NIH3T3 host cells, beta-gal luminescence (AID 2044); assay type: functional, cell-based;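 also: intracellular parasites grown in NIH/3T3 mouse fibroblasts as host cells; luminescent beta-galactosidase reporter signal from transgenic T. cruzi replicating inside host cells; inhibitors lower the luminescence signal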
[7] = cytotoxicity toward NIH3T3 fibroblasts, dose response, counter-screen, cell-based, ATP luminescence, mouse fibroblasts (AID 2010); assay type: functional;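 also: cells exposed to compound for about 90 hours before reading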
[8] = cells
[9] = target: Metabotropic glutamate receptor 5 (Rattus norvegicus, UniProt P31424); experiment: Identification of a glycine sulfonamide based non-MPEP site positive allosteric potentiator (PAM) of mGlu5 (calcium_assay).; assay type: functional
Chain of Metabotropic glutamate receptor 5 (P31424 whole entry): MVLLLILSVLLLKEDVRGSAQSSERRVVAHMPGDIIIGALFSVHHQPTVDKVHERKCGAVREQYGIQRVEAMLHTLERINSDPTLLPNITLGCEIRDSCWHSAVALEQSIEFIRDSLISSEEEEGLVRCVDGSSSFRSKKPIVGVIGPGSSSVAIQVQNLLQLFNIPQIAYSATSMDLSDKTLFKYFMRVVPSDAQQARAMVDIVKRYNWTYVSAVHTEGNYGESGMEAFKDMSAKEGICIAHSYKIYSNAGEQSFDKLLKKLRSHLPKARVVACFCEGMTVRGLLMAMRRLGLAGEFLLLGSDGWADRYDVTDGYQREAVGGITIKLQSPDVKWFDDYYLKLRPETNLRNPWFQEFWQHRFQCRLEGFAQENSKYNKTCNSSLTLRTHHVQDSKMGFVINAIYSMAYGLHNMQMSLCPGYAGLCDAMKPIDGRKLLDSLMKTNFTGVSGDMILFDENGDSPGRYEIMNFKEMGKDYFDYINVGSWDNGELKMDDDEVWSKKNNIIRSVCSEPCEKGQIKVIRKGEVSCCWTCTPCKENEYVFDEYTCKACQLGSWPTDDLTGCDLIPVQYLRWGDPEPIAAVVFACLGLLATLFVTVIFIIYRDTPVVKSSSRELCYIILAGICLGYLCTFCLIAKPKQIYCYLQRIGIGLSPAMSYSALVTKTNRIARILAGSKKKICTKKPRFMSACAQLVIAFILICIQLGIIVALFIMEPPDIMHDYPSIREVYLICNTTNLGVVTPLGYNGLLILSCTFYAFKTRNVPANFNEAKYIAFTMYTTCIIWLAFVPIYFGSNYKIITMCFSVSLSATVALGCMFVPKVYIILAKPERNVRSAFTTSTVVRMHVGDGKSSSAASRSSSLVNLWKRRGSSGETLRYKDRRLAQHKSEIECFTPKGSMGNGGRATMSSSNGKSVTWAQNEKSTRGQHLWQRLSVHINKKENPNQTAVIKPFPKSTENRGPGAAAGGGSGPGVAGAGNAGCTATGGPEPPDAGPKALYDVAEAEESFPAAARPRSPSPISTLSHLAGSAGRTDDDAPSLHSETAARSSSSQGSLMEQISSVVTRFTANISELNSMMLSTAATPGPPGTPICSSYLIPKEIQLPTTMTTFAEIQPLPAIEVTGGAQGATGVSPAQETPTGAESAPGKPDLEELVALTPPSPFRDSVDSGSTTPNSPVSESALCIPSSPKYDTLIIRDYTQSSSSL

[10] = Shn3 3'UTR reporter inhibitors, dose response, cell-based, Clone20 osteoblasts, firefly luciferase, cherry-picked (AID 624132); assay type: functional;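 also: firefly luciferase luminescence from reporter carrying the Shn3 3'UTR in osteoblasts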
[11] = reduction of Shn3 3'UTR firefly luciferase signal, dose response, Schnurri-3 inhibitor project, cell-based, Clone20 osteoblasts, cherry-pick, set 2 (AID 720490); assay type: functional;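 also: actives lower the luminescence signal as inhibitors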
[12] = Luminescence Cell-Based Dose Retest to Confirm Inhibitors of Cancer Stem Cells. [Related pubchem assays (depositor defined):AID2717, AID2721]; assay type: functional; conditions: Homo sapiens

SMILES: COc1cccc(CN2C[C@@H]3N[C@H](C2)[C@@H]3c2ccc(-c3ccncc3)cc2)c1
- AC50 [1]: 4.63 µM (active)
- AC50 [2]: > 39 µM (inactive)

- AC50 [3]: > 30 µM (inactive)
SMILES: CC(C(=O)NC(N)=O)N1C(=O)NC(c2ccccc2)(c2ccccc2)C1=O (stereo not given)

- IC50 [4]: 24.9 µM (inactive)
SMILES: O=C(O)CCC(=O)c1c[nH]c2ccccc12
- IC50 [5]: > 69.5 µM (inactive)

- AC50 [3]: > 30 µM (inactive)
SMILES: Cc1cc(=O)oc2c(C)c(OC(C)C(=O)NCCCN3CCCC3=O)ccc12 (stereo not given)

SMILES: Cc1ccc(S(=O)(=O)CC(=O)N(CCCN(C)C)c2nc3ccc(C)cc3s2)cc1
- EC50 [6]: < 100 nM (active)
- EC50 [7]: > 30 µM (not active)
- EC50 [8]: 60 nM (active)

- EC50 [9]: > 30 µM (inactive)
SMILES: CC(C)NC(=O)CN(c1ccccc1Cl)S(C)(=O)=O

- EC50 [9]: 4.43 µM
SMILES: CS(=O)(=O)N1c2ccccc2CCC1C(=O)Nc1nccs1 (stereo not given)

SMILES: O=C(CCCn1cnc([N+](=O)[O-])n1)Nc1ccc(F)c(Cl)c1
- EC50 [6]: < 100 nM (active)
- EC50 [7]: > 60 µM (not active)
- EC50 [8]: 98 nM (active)

SMILES: CC(C)Oc1ccc(CNCCC2(C(C)C)CCOC(C)(C)C2)cc1 (stereo not given)
- EC50 [6]: < 100 nM (active)
- EC50 [7]: > 60 µM (not active)
- EC50 [8]: 154 nM (active)

SMILES: N#Cc1ccc(-c2ccc([C@@H]3[C@@H]4CN(Cc5ccccc5F)C[C@H]3N4)cc2)cc1
- AC50 [1]: 1.88 µM (active)
- AC50 [2]: 9.39 µM (active)

SMILES: CCCCN1CC(COCc2ccccc2)Oc2cccc(Oc3ccc(C(C)C)cc3)c2S1(=O)=O (stereo not given)
- AC50 [10]: 5.03 µM (active)
- AC50 [11]: 4.4 µM (active)

- EC50 [9]: 0.049 µM
SMILES: CS(=O)(=O)N(CC(=O)Nc1ccccc1)c1ccccc1Cl

SMILES: C/C(=N/Nc1ccc([N+](=O)[O-])cc1)c1ccc(C)cc1C
- AC50 [12]: 5.92 µM (active)
- IC50 [4]: > 69.5 µM (inactive)
- IC50 [5]: 20.5 µM (inactive)
